Experiment: xn = mol fraction of the nth substance listed
Settings: 101 kPa

[N-]=C=S.[NH4+] + CC(=O)[O-].CC[n+]1ccn(C)c1
Settings	electrical conductivity [S/m]	viscosity [mPa·s]
298.15 K, x1 = 0.02	0.294	136.6
298.15 K, x1 = 0.1002	0.284	160.2
298.15 K, x1 = 0.1998	0.296	190.7
298.15 K, x1 = 0.2514	0.314	198.6
298.15 K, x1 = 0.3413	0.358	196.4
303.15 K, x1 = 0.02	0.382	100.9
303.15 K, x1 = 0.2514	0.411	144.4
303.15 K, x1 = 0.3199	0.458	142.8
303.15 K, x1 = 0.3413	0.463	143.6
308.15 K, x1 = 0.02	0.483	76.4
308.15 K, x1 = 0.1002	0.473	88.5
308.15 K, x1 = 0.3001	0.569	105.9
308.15 K, x1 = 0.3199	0.58	106.6
313.15 K, x1 = 0.02	0.601	59.3
313.15 K, x1 = 0.1002	0.593	68.1
313.15 K, x1 = 0.1998	0.617	79.3
313.15 K, x1 = 0.2514	0.66	81.5
313.15 K, x1 = 0.3001	0.782	80.5
313.15 K, x1 = 0.3199	0.797	81.1
318.15 K, x1 = 0.02	0.82	46.9
318.15 K, x1 = 0.1002	0.811	53.3
318.15 K, x1 = 0.2514	0.901	62.9
318.15 K, x1 = 0.3001	0.968	62.3
318.15 K, x1 = 0.3199	0.986	62.8
318.15 K, x1 = 0.3413	0.997	63.3
323.15 K, x1 = 0.02	0.986	37.8
323.15 K, x1 = 0.1002	0.987	42.5
323.15 K, x1 = 0.1998	1.04	48.4
323.15 K, x1 = 0.2514	1.1	49.3
323.15 K, x1 = 0.3001	1.18	48.9
323.15 K, x1 = 0.3199	1.2	49.3
323.15 K, x1 = 0.3413	1.21	49.8
328.15 K, x1 = 0.02	–	30.91
328.15 K, x1 = 0.1998	–	38.62
328.15 K, x1 = 0.2514	–	39.15
328.15 K, x1 = 0.3001	–	38.91
328.15 K, x1 = 0.3413	–	39.67
333.15 K, x1 = 0.2514	–	31.49
333.15 K, x1 = 0.3199	–	31.67
333.15 K, x1 = 0.3413	–	32

From a compilation of properties of binary mixtures (doi:10.1039/c2cc30374d)
